The results in this text go back to ChEMBL document CHEMBL3991601, “The target landscape of clinical kinase drugs” (Science, 2017).

Structures can show the parent of a compound that is named as a salt. Active and inactive are the calls of the source. Rule as the data show it, for most assays here: actives have a measured Kd and inactives only a lower limit.

Assay [1] concerns the target T1, Mitogen-activated protein kinase kinase kinase 6 (Homo sapiens, UniProt O95382).
T1 sequence (O95382 whole entry): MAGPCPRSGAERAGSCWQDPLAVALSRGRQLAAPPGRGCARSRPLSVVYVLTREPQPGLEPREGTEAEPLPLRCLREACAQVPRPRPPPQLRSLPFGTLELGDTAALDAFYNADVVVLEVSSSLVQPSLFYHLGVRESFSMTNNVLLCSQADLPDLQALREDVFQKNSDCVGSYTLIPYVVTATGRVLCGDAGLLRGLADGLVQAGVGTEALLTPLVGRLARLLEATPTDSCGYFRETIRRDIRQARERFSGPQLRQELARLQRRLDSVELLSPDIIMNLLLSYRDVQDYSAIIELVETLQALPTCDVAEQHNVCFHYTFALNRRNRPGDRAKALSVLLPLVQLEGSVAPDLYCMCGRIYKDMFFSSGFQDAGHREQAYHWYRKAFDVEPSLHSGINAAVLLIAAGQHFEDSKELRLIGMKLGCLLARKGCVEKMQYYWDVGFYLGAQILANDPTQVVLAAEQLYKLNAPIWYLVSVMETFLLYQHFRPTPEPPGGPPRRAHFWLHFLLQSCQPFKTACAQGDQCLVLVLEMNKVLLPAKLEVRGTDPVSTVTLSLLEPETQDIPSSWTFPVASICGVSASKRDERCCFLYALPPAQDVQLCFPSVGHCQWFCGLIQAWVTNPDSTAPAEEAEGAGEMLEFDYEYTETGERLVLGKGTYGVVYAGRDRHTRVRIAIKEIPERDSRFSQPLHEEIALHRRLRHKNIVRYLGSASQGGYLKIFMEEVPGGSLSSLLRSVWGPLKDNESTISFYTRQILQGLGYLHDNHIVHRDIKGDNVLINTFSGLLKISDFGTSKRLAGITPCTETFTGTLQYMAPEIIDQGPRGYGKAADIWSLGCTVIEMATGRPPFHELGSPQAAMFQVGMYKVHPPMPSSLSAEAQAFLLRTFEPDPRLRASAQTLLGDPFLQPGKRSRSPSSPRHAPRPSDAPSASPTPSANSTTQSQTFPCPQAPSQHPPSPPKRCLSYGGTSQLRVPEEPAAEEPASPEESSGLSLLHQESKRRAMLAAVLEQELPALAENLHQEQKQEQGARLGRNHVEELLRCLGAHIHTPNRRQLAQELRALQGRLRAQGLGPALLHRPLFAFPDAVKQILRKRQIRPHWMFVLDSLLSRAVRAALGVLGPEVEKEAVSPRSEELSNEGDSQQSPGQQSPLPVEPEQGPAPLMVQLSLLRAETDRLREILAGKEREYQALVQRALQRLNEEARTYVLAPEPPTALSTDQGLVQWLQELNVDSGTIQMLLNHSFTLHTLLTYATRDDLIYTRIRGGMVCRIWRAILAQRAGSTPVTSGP

The target of assay [2] is Serine/threonine-protein kinase 16 (Homo sapiens, UniProt O75716).
For assay [3], the target named is T2, MAP/microtubule affinity-regulating kinase 4 (Homo sapiens, UniProt Q96L34).
T2 sequence (Q96L34 whole entry): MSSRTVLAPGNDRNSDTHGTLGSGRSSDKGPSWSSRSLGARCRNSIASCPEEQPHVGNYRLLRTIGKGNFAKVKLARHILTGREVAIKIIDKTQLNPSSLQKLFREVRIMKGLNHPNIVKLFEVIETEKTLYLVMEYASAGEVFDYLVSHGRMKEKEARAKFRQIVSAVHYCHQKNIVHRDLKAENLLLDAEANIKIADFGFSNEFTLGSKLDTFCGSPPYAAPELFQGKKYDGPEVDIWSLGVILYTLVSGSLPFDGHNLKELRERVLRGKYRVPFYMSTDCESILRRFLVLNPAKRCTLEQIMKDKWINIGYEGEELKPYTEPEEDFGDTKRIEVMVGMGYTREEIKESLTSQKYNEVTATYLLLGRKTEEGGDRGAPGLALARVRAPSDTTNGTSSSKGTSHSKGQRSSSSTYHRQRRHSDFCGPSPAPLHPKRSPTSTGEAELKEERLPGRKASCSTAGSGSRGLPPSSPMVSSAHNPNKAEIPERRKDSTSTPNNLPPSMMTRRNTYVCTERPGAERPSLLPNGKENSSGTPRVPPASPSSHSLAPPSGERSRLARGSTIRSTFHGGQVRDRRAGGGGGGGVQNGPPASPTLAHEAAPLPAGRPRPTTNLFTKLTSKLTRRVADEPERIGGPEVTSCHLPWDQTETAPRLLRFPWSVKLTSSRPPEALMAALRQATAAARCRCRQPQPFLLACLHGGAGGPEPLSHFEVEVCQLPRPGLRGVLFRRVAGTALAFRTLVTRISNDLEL

The target of assay [4] is T3, Bone morphogenetic protein receptor type-2 (Homo sapiens, UniProt Q13873).
T3 sequence (Q13873 whole entry): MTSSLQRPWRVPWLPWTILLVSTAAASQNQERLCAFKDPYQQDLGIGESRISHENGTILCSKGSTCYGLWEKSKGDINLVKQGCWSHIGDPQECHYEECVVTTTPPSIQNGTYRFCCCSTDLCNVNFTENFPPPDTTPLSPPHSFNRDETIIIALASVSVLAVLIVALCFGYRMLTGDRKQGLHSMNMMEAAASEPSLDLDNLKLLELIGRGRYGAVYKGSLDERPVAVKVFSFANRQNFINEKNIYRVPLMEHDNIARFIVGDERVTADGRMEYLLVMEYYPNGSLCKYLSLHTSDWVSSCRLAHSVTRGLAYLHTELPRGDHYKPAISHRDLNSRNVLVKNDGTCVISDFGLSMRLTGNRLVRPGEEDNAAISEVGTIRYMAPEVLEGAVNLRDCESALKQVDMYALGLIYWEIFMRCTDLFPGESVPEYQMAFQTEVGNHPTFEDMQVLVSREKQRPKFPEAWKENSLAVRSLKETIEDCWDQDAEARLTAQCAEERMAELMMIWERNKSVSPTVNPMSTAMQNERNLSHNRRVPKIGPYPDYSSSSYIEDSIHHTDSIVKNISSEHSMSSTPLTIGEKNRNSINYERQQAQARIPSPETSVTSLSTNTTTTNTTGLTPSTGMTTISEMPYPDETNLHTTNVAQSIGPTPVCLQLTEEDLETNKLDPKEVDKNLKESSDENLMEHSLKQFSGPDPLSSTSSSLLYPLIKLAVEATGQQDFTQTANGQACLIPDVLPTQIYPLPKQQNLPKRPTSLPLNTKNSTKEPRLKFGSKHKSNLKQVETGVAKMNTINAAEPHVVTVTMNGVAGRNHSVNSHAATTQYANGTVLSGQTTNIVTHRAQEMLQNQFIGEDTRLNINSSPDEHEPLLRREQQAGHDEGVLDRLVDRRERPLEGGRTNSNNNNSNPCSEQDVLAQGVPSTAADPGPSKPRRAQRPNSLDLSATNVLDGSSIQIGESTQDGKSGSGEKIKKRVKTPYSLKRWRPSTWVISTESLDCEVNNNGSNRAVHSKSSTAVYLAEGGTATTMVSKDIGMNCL
Also: in the data inactive means no Kd found up to 30 µM.

Sequence of Serine/threonine-protein kinase 16 (O75716 whole entry): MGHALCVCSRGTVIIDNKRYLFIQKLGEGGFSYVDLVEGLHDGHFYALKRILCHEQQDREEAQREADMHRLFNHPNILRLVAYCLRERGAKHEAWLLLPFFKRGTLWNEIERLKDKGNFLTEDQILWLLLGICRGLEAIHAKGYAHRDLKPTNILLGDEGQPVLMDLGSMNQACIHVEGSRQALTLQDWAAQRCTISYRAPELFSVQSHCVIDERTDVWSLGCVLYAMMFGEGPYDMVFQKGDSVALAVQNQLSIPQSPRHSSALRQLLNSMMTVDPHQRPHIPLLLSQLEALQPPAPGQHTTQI

One may read the Kd as the constant that tells how readily two partners part at equilibrium. Consider `C=CC(=O)Nc1cc2c(Nc3ccc(F)c(Cl)c3)ncnc2cc1C#CC(C)(C)N1CCN(C)CC1` [AV-412 FREE BASE], for which the Kd in assay [1], in assay [2], in assay [3] and in assay [4] was > 30 µM (inactive) each time.
As to `NC(=O)Nc1cc(-c2cccc(F)c2)sc1C(=O)N[C@H]1CCCNC1` [AZD-7762], the Kd in assay [1] is > 30 µM (inactive); in assay [2] it was > 30 µM (inactive); in assay [3], 0.475 µM (active); in assay [4], > 30 µM (inactive).
In the case of `Cc1cc(C(=O)NOCCO)c(Nc2ccc(I)cc2F)n(C)c1=O` [AZD-8330], the Kd in assay [1], in assay [2], in assay [3] and in assay [4] was > 30 µM (inactive) throughout.
As for `Cn1cnc2c(F)c(Nc3ccc(Br)cc3F)c(C(=O)NOCCO)cc21` [BINIMETINIB], the Kd in assay [1], in assay [2], in assay [3] and in assay [4] was > 30 µM (inactive) throughout.
In the case of `CCn1c(C(=O)N(C2CC2)C2CC2)cc2c3c(ncn3C)c(Nc3cc(C)n(C)n3)nc21` [BMS-911543], the Kd in assay [1], in assay [2], in assay [3] and in assay [4] was > 30 µM (inactive) each time.
Turning to `COc1cc2ncnc(Oc3cccc(NC(=O)Nc4cc(C(C)(C)C(F)(F)F)on4)c3)c2cc1OC` [CEP-32496], the Kd in assay [1], in assay [2], in assay [3] and in assay [4] was > 30 µM (inactive) throughout.
Regarding `Cc1cc(Nc2ncc(Cl)c(Nc3ccccc3S(=O)(=O)C(C)C)n2)c(OC(C)C)cc1C1CCNCC1` [CERITINIB], the Kd in assay [1], in assay [2], in assay [3] and in assay [4] was > 30 µM (inactive) in each case.
In the case of `COc1c(OCCCN2CCOCC2)ccc2c1N=C(NC(=O)c1cnc(N)nc1)N1CCN=C21` [COPANLISIB], the Kd in assay [1], in assay [2], in assay [3] and in assay [4] was > 30 µM (inactive) throughout.
In the case of `COCC(=O)NC/C=C/c1ccc2ncnc(Nc3ccc(Oc4ccc(C)nc4)c(C)c3)c2c1` [CP-724714], the Kd in assay [1], in assay [2], in assay [3] and in assay [4] was > 30 µM (inactive) each time.
Consider `C#Cc1cccc(Nc2ncnc3cc(OC)c(OCCCCCCC(=O)NO)cc23)c1` [CUDC-101], for which the Kd in assay [1], in assay [2], in assay [3] and in assay [4] was > 30 µM (inactive) throughout.
As to `CCS(=O)(=O)N1CCN(c2ccc(Nc3ncc(C(N)=O)c(NC4CC4)n3)cc2)CC1` [Cerdulatinib Hydrochloride], the Kd in assay [1] is 0.473 µM (active); in assay [2], > 30 µM (inactive); in assay [3], > 30 µM (inactive); in assay [4], 4.86 µM (active).
In the case of `CC(C)(C)c1nc(-c2cccc(NS(=O)(=O)c3c(F)cccc3F)c2F)c(-c2ccnc(N)n2)s1` [DABRAFENIB], the Kd in assay [1], in assay [2], in assay [3] and in assay [4] was > 30 µM (inactive) in each case.
Regarding `Cc1nc2cc(-n3ncc(C(=O)c4cc5ccccc5[nH]4)c3N)ccc2[nH]1` [FGFR INHIBITOR DEBIO 1347], the Kd in assay [1], in assay [2], in assay [3] and in assay [4] was > 30 µM (inactive) in each case.
For `O=C(Nc1nc2cccc(-c3ccc(CN4CCS(=O)(=O)CC4)cc3)n2n1)C1CC1` [FILGOTINIB], the Kd in assay [1], in assay [2], in assay [3] and in assay [4] was > 30 µM (inactive) in each case.
Consider `CCn1cc(-c2ccnc3[nH]c(-c4cccc(CN(C)C)c4)cc23)c(-c2ccc(NC(=O)N(C)C)cc2)n1` [GSK-1070916], for which the Kd in assay [1], in assay [2], in assay [3] and in assay [4] was > 30 µM (inactive) each time.
On to `COc1ccc(S(=O)(=O)N(C(C)=O)c2ccccc2/C=C/c2cc[n+]([O-])cc2)cc1` [HMN-214], for which the Kd in assay [1], in assay [2], in assay [3] and in assay [4] was > 30 µM (inactive) in each case.
As for `CNC(=O)c1cccc2cc(Oc3ccnc4cc(OCC5(N)CC5)c(OC)cc34)ccc12` [LUCITANIB], the Kd in assay [1], in assay [2], in assay [3] and in assay [4] was > 30 µM (inactive) each time.
As for `CNC(=O)c1nn(C)c2c1C(C)(C)Cc1cnc(Nc3ccc(N4CCN(C)CC4)cc3)nc1-2` [MILCICLIB], the Kd is > 30 µM (inactive) in assay [1], 1.1 µM (active) in assay [2], > 30 µM (inactive) in assay [3] and > 30 µM (inactive) in assay [4].
For the compound `NC1(c2ccc(-c3nc4ccn5c(=O)[nH]nc5c4cc3-c3ccccc3)cc2)CCC1` [MK-2206], the Kd in assay [1], in assay [2], in assay [3] and in assay [4] was > 30 µM (inactive) in each case.
